Test results reported in publication PMC11774906, “Volume-regulated anion channels conduct ATP in undifferentiated mammary cells and promote tumorigenesis in xenograft nude mouse” (Frontiers in Cell and Developmental Biology, 2025).

Biological target: T1, volume-regulated anion channels (VRACs); LRRC8A-containing hexamer (Homo sapiens, UniProt Q8IWT6)
T1 construct: native channel in intact MCF10A cells; LRRC8 heterohexamer of undefined subunit composition, LRRC8A essential; A, C, D prominently expressed, B and E minimal
T1 sequence (Q8IWT6 1-810): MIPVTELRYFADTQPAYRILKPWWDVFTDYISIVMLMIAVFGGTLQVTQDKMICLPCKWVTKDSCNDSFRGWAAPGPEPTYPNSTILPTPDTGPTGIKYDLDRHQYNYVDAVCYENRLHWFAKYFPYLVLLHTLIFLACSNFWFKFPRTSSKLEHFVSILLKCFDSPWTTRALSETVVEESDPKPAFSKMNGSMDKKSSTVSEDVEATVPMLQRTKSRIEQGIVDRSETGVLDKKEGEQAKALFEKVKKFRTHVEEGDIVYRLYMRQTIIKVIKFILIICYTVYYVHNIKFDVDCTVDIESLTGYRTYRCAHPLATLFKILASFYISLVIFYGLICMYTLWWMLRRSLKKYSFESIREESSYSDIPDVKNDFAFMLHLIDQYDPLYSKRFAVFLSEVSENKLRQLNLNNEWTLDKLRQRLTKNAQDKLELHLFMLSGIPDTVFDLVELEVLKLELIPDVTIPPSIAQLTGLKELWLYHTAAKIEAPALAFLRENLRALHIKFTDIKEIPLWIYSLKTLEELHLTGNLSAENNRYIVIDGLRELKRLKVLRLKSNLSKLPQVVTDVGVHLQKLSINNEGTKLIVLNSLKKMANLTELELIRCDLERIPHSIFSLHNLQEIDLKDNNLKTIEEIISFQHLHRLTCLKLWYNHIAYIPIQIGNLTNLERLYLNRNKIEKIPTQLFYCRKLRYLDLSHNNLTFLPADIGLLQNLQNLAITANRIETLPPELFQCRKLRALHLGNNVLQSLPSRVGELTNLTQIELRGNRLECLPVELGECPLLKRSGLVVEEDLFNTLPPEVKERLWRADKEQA
T1 sequence (Q8TDW0 1-803 partner): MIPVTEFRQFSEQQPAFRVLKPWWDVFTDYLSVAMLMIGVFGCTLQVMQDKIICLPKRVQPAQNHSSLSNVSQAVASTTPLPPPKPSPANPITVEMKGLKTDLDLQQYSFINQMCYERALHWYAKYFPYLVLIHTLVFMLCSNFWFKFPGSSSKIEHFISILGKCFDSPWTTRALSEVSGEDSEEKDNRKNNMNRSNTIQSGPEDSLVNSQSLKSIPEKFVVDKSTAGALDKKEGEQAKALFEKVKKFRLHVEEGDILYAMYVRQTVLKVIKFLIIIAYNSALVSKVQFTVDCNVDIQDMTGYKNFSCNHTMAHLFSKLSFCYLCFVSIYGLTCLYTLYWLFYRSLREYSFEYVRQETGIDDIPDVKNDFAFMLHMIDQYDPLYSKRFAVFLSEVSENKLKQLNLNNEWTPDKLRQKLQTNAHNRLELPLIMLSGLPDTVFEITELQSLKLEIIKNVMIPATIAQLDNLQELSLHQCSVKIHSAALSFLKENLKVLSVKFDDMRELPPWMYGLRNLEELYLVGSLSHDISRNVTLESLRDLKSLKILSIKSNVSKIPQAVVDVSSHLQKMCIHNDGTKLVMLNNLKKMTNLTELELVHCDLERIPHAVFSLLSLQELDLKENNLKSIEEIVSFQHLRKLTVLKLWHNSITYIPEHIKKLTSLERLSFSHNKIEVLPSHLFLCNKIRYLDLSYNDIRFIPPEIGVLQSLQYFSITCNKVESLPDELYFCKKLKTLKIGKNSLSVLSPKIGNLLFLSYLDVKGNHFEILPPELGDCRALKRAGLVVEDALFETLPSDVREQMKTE
T1 sequence (Q7L1W4 1-858 partner): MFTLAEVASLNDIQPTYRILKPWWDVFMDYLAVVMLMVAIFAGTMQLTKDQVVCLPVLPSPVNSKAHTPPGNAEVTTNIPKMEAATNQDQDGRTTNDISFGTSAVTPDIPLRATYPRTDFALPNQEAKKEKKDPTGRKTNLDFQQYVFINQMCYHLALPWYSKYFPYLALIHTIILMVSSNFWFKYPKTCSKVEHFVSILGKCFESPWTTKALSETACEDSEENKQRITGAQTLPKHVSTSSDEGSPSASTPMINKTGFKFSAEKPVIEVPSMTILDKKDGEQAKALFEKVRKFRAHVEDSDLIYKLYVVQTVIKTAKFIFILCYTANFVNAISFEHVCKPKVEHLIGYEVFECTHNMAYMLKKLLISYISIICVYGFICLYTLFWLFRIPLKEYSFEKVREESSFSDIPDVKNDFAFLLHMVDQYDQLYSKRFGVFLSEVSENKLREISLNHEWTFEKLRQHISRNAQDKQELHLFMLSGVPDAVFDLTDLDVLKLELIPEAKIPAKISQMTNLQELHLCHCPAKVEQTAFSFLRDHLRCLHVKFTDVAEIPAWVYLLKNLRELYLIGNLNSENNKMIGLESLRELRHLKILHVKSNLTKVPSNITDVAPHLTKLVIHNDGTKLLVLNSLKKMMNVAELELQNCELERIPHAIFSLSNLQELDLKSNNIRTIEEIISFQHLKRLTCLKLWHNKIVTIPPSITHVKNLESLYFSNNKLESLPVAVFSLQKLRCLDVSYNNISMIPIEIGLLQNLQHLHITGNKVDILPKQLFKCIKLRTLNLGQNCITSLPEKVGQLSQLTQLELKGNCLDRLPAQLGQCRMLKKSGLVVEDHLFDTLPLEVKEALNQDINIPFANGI
Experiment: luciferin-luciferase imaging of hypotonic diffuse ATP release in MCF10A cells
Assay type: cell-based
Details: 50% hypotonic stress; pH 7.4, 30 °C; decay of ATP signal after DCPIB, exponential fit; indirect read-out (ATP release)

Compound `CCCCC1(C2CCCC2)Cc2cc(OCCCC(=O)O)c(Cl)c(Cl)c2C1=O` (stereo not shown) [DCPIB, 4-[(2-Butyl-6,7-dichloro-2-cyclopentyl-2,3-dihydro-1-oxo-1H-inden-5-yl)oxy] butanoic acid] has an IC50 of 38.5 µM.
